These results are taken from patent publication US6472175B1, “Sialylation of N-linked glycoproteins in the baculovirus expression vector system” (Boyce Thompson Institute For Plant Research, Inc., priority 1999, dated 2002).

The subject of test [1] is Tn-4h Insect Tissue Culture Cells. Description: Measurement of total cellular sialic acid (colorimetric assay) in Tn-4h insect tissue culture cells. Format: cell-based, Trichoplusia ni. From the text:
Since substrate levels can affect sialylation, it was hypothesized that the microgravity-mediated sialylation might have resulted from an increase in substrate availability. […] This hypothesis was investigated further by comparing the concentration of sialic acid in cells grown in T-flasks and in HARV bioreactors.

A further test concerns mammalian (CHO) cells. The note with it: cited from earlier work.
The subject of another test is Tn-4h cells. The experiment in a line: Sialylation of baculovirus-expressed SEAP N-linked glycans, normal phase HPLC of 2-AB-labeled glycans. Format: cell-based, Trichoplusia ni. The note with it: normal gravity. The protocol: Once the SEAP protein is purified, the oligosaccharide moieties are cleaved from the glycoprotein with peptide N-glycosidase F (cleaves oligomannose, hybrid and complex oligosaccharides with or without terminal sialic acid residues). The oligosaccharides are then bonded to a fluorophore marker. The labeled sugar can be digested with various glycosidases that cleave specific linkages. The samples are analyzed by HPLC. Normal phase HPLC fractionations are carried out with a 50 mM ammonium phosphate, pH 4.4, and acetonitrile gradient on a Glyco Sep-N column (OGS, Oxford, UK) by a technique being known in the art, and incorporated by reference (Guile et al., 1996; Mattu et al., 1998). The Glyco Sep-N column is capable of resolving both neutral and charged sugar residues based on hydrophilicity (related to the hydrodynamic volume and molecular size). To obtain accurate glucose equivalency values, the GlycoSep-N is calibrated with a 2-aminobenzamide (2-AB) labeled dextran hydrolysate ladder and glucose homopolymers. The 2-AB fluorescence is detected and quantified using a Waters^a 474 Scanning Fluorescence Detector (Waters Corporation, MA) at λex 330 nm and λcm 420 nm using a 16 μl flow cell.
Since substrate levels can affect sialylation, it was hypothesized that the microgravity-mediated sialylation might have resulted from an increase in substrate availability. […]

For the molecule `CC(=O)N[C@@H]1C(O)O[C@H](CO)[C@@H](O)[C@@H]1O` (stereo partly shown) [ManNAc, N-acetylmannosamine], the “change of sialic acid level, infected cells” value in test [1] (addition to culture medium, infected Tn-4h cells) is “not infected cells”. The “change of sialic acid level, uninfected cells” value in test [1] (addition to culture medium, uninfected Tn-4h cells) is on record as “increased the levels of sialic acid in uninfected cells”. Also, the “nMoles Sialic Acid per mg Cell Protein, Infected” value in test [1] (baculovirus infected Tn-4h cells, T-flask, medium supplemented with 5 mM ManNAc) is given as 98 ± 9 nMoles Sialic Acid per mg Cell Protein. Besides, in test [1] (uninfected Tn-4h cells, T-flask, medium supplemented with 5 mM ManNAc), the “nMoles Sialic Acid per mg Cell Protein, Uninfected” value is given as 62 ± 7 nMoles Sialic Acid per mg Cell Protein. For the same molecule, the effect on sialylation result in the test on mammalian (CHO) cells is listed as “increase sialylation”. Further, the “sialylated SEAP glycans identified” value in the test on Tn-4h cells (5 mM in medium, stationary T-flasks, Tn-4h cells) is recorded as “five sialylated SEAP glycans were identified”. The “induction of complex, sialylated glycans on a secreted human glycoprotein” value in the test on Tn-4h cells (culture media supplemented, insect tissue culture cells) is “induced to produce complex, sialylated glycans”.
